# Experiments:
# [1] = molecular target: T1, Prostaglandin G/H synthase 1 (Homo sapiens, UniProt P23219); assay: Percent inhibition at 10 uM concentration against human recombinant Prostaglandin G/H synthase 1 cloned and expressed in baculovirus (Sf9)
# [2] = molecular target: T2, Prostaglandin G/H synthase 2 (Homo sapiens) (UniProt P35354); assay: Percent inhibition at 100 nM concentration against human recombinant Prostaglandin G/H synthase 2 cloned and expressed in baculovirus (Sf9)
# T2 sequence (whole entry): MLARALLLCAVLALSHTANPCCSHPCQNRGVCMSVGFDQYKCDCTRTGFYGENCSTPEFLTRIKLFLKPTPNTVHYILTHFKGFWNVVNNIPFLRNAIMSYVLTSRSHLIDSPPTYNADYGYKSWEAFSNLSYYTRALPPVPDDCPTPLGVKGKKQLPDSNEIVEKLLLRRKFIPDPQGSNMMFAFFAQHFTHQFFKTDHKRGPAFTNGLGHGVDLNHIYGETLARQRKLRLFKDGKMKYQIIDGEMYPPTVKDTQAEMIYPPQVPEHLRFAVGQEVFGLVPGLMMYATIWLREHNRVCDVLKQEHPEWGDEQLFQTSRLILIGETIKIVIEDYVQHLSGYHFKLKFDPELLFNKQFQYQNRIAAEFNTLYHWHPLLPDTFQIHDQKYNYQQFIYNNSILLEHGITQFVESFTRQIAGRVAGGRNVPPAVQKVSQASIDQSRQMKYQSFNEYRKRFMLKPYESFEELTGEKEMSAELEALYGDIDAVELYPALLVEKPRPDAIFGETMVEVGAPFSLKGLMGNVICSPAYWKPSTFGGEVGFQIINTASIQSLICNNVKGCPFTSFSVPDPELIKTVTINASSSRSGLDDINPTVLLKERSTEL
# [3] = molecular target: T1, Prostaglandin G/H synthase 1; assay: Percent inhibition at 10 uM concentration against human recombinant Prostaglandin G/H synthase 1 cloned and expressed in baculovirus
# [4] = molecular target: T3, Prostaglandin G/H synthase 2 (Homo sapiens, UniProt P35354); assay: biochemical
# T3 sequence (P35354 whole entry): T2 sequence (whole entry)
# Description: Inhibitory concentration against human recombinant Prostaglandin G/H synthase 2 cloned and expressed in baculovirus (Sf9)
# [5] = molecular target: T1, Prostaglandin G/H synthase 1; assay: Inhibitory concentration against human recombinant Prostaglandin G/H synthase 1 cloned and expressed in baculovirus (Sf9)
# T1 sequence (P23219 whole entry): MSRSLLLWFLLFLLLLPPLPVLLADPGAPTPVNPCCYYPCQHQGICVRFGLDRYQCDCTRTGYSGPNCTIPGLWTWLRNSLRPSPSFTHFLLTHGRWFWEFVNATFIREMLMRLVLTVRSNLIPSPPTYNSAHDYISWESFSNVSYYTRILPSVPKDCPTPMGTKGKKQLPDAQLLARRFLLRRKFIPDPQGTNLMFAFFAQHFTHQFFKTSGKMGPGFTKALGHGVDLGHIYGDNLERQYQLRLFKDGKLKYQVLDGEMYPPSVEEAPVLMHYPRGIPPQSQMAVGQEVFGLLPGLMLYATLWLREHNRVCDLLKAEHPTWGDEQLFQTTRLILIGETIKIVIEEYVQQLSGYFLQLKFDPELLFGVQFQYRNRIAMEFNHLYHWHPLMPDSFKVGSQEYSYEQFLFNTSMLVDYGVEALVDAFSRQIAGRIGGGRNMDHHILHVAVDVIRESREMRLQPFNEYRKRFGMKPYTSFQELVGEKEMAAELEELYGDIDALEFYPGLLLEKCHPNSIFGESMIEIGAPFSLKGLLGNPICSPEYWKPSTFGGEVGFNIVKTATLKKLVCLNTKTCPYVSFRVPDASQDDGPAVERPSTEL
SMILES,inhibition [1] [%],inhibition [2] [%],inhibition [3] [%],IC50 [4] [µM],IC50 [5] [µM]
COc1ccc2c(c1)c(Cc1nc(-c3ccc(Br)cc3)cs1)c(C)n2C(=O)c1ccc(Cl)cc1,27,,,,
Cc1c(Cc2nc(-c3ccc(Cl)cc3)cs2)c2cc(Br)ccc2n1C(=O)c1ccc(Br)cc1,,9,4,,
Cc1c(Cc2nc(-c3ccc([N+](=O)[O-])cc3)cs2)c2cc(F)ccc2n1C(=O)c1ccc(Br)cc1,,40,1,,
COc1ccc2c(c1)c(Cc1csc(-c3ccncc3)n1)c(C)n2C(=O)c1ccc(Cl)cc1,,75,57,,
COc1ccc2c(c1)c(Cc1nc(-c3ccc(S(C)(=O)=O)cc3)cs1)c(C)n2C(=O)c1ccc(Cl)cc1,,33,15,,
CCN(CC)c1ccc(-c2csc(Cc3c(C)n(C(=O)c4ccc(Cl)cc4)c4ccc(OC)cc34)n2)cc1,,36,23,,
COc1ccc2c(c1)c(Cc1nc(-c3ccc(-c4ccccc4)cc3)cs1)c(C)n2C(=O)c1ccc(Cl)cc1,13,21,,,
Cc1c(Cc2nc(-c3ccc([N+](=O)[O-])cc3)cs2)c2cc(Br)ccc2n1C(=O)c1ccc(Br)cc1,,7,1,,
COc1ccc2c(c1)c(Cc1nc(C(=O)O)cs1)c(C)n2C(=O)c1ccc(Cl)cc1,,2,6,,
COc1ccc2c(c1)c(Cc1nc(-c3cccc(Br)c3)cs1)c(C)n2C(=O)c1ccc(Cl)cc1,,,18,,
COc1ccc2c(c1)c(Cc1nc(C(C)C)cs1)c(C)n2C(=O)c1ccc(Cl)cc1,,1,36,,
COc1ccc2c(c1)c(Cc1nc(-c3ccc(F)cc3)cs1)c(C)n2C(=O)c1ccc(Cl)cc1,28,,,,
CCOC(=O)c1csc(Cc2c(C)n(C(=O)c3ccc(Cl)cc3)c3ccc(OC)cc23)n1,,40,1,,
COc1ccc2c(c1)c(Cc1nc(-c3ccc(Cl)cc3)cs1)c(C)n2C(=O)c1ccc(Br)cc1,,,2,0.007,
COc1ccc2c(c1)c(Cc1nc(-c3ccc4ccccc4c3)cs1)c(C)n2C(=O)c1ccc(Cl)cc1,,,11,,
Cc1c(Cc2nc(-c3ccc(Br)cc3)cs2)c2cc(F)ccc2n1C(=O)c1ccc(Br)cc1,,25,0,,
COc1ccc2c(c1)c(Cc1csc(-c3cccnc3)n1)c(C)n2C(=O)c1ccc(Cl)cc1,,20,47,,

SMILES,inhibition [1] [%],inhibition [2] [%],inhibition [3] [%],IC50 [4] [µM],IC50 [5] [µM]
COc1ccc2c(c1)c(Cc1csc(-c3ccc(Cl)cc3)n1)c(C)n2C(=O)c1ccc(Cl)cc1,,16,18,,
Cc1c(Cc2nc(-c3ccc(Br)cc3)cs2)c2cc(Br)ccc2n1C(=O)c1ccc(Br)cc1,,7,13,,
COc1ccc2c(c1)c(Cc1nc(-c3ccc(F)cc3F)cs1)c(C)n2C(=O)c1ccc(Cl)cc1,,75,12,,
COc1ccc2c(c1)c(Cc1nc(C34C[C@H]5C[C@@H](C3)C[C@@H](C4)C5)cs1)c(C)n2C(=O)c1ccc(Cl)cc1,,6,13,,
Cc1c(Cc2nc(-c3ccc(Cl)cc3)cs2)c2cc(F)ccc2n1C(=O)c1ccc(Br)cc1,,37,7,,
COc1ccc2c(c1)c(Cc1csc(NC(=O)c3ccncc3)n1)c(C)n2C(=O)c1ccc(Cl)cc1,,45,0,,
COc1ccc2c(c1)c(Cc1nc(-c3csc4ccccc34)cs1)c(C)n2C(=O)c1ccc(Cl)cc1,,,20,,
COc1ccc2c(c1)c(Cc1nc(-c3ccc(Cl)cc3)cs1)c(C)n2C(=O)c1ccc(Cl)cc1,16,,,,
COc1ccc2c(c1)c(Cc1csc(-c3ccccc3Cl)n1)c(C)n2C(=O)c1ccc(Cl)cc1,,42,24,,
COc1ccc2c(c1)c(Cc1nc(-c3ccc([N+](=O)[O-])cc3)cs1)c(C)n2C(=O)c1ccc(Cl)cc1,17,,,,
COc1ccc2c(c1)c(Cc1csc(NC(=O)CN)n1)c(C)n2C(=O)c1ccc(Cl)cc1,,4,27,,
COc1ccc2c(c1)c(Cc1nc(-c3ccc(C(=O)O)cc3)cs1)c(C)n2C(=O)c1ccc(Cl)cc1,,,35,0.12,
COc1ccc2c(c1)c(Cc1nc(-c3cccc([N+](=O)[O-])c3)cs1)c(C)n2C(=O)c1ccc(Cl)cc1,,85,35,,
COc1ccc2c(c1)c(Cc1nc(-c3ccc(C(=O)O)cc3)cs1)c(C)n2C(=O)c1ccc(Br)cc1,,10,40,,
COc1ccc2c(c1)c(Cc1nc(-c3ccc(Br)cc3)cs1)c(C)n2C(=O)c1ccc(Br)cc1,,,3,0.03,
COc1ccc2c(c1)c(Cc1nc(-c3ccc([N+](=O)[O-])cc3)cs1)c(C)n2C(=O)c1ccc(Br)cc1,,,9,0.007,
COc1ccc2c(c1)c(Cc1csc(N)n1)c(C)n2C(=O)c1ccc(Cl)cc1,,,,0.39,15500
